Source: patent US11096986B2, “Use of a neurofilament peptide for targeting neural stem cells” (Universite D'Angers, priority 2014, dated 2021)
Ends that are not written are not given here.

Tests used:
[1] = tested on: neural stem cells; experiment: CyQUANT cell proliferation assay; type: cell-based, rat
Protocol: To analyse the NFL-TBS.40-63 peptide effect on the NSC proliferation, primary neurospheres were dissociated and 5.10^3 cells per well were plated on BD Cell-Tak (BD Biosciences) on 96 well microplate. Cells were treated with increased concentrations of biotinylated NFL-TBS.40-63 peptide, or with 1 μmol/L colchicine during 72 h at 37° C. After washes with PBS, cells were freezed at −80° C. Finally, the DNA concentration was analyzed using the CyQUANT cell proliferation assay kit (Molecular Probes).

[2] = tested on: neural stem cells; experiment: Cell cycle analysis by PI incorporation and FACS; type: cell-based, rat
Protocol: […] Neurospheres were then collected in a microcentrifuge tube. After centrifugation (5 min at 700 rpm), cells were dissociated mechanically and permeabilized with PBS-Tween 0.5% and fixed with ethanol 70% before adding 1 mg/mL RNase (Invitrogen) during 30 min at 37° C. The cell suspension was diluted in 10 μg/mL PI before DNA content analysis by flow cytometry.

[3] = tested on: neural stem cells; experiment: Confocal microscopy of neurospheres (peptide uptake, α-tubulin microtubule network); type: cell-based, rat
Protocol: To visualize the NFL-TBS40-63 peptide uptake in neural stem cells, neurospheres were plated on BD Cell-Tak (BD Biosciences) coverslips or LabTek chambers. After 24 h, neurospheres were incubated with 20 μmol/L FITC labelled NFL-TBS40-63 peptide for 30 min, 6 h or 72 h. Following PBS washing, cells were fixed with 4% paraformaldehyde for 15 min and washed three times in PBS. They were then incubated in a 0.5% triton X-100 permeabilization solution for 30 min and washed three times in PBS before incubation in a blocking solution (1% bovine serum albumin in 0.1% triton X-100) for 1 h. Neurospheres were then incubated overnight at 4° C. with mouse anti-α-tubulin antibody (Sigma) 1/1000. After three washes in PBS, tubulin was localized using an Alexa 568 nm anti-mouse antibody (Life Technologies) 1/200 for 2 h. Neurospheres were washed three times with PBS before adding 3 μmol/L 4′6-diaminido-2-phenylindole (DAPI, Sigma) for 5 min. Following PBS washing, coversplips were mounted with a ProLong Gold antifade solution (Life Technologies).

[4] = tested on: neural stem cells; experiment: Cell viability by Annexin V/PI staining and FACS; type: cell-based, rat
Protocol: To analyse the cell viability in the presence of the NFL-TBS40-63 peptide, neurospheres were seeded in 35-mm dishes and then treated with increased concentrations of biotinylated peptide or with 1 μmol/L colchicine during 3 or 5 days at 37° C. Neurospheres were then collected in a microcentrifuge tube. After centrifugation (5 min at 700 rpm), cells were dissociated mechanically and stained with annexin-V FITC (Annexin-V FITC Kit, Miltenyi Biotec) for 15 min at room temperature. Finally, cells were counterstained with 1 μg/mL PI solution prior to analysis by flow cytometry.

[5] = tested on: neural stem cells of newborn rats; experiment: FACS internalization of FITC labelled peptide in neurospheres of newborn rats; type: cell-based, rat; settings: for percentage of newborn NSCs that internalized the peptide: 30 min, FACS
Protocol: (§1) Primary cultures of neural stem cells are derived from the sub-ventricular zone of newborn (1-5 days) or adults (<4 months) brain Wistar rats. The dissociated cells were grown in MEM alpha (PAA) supplemented with 25 mmol/L D-glucose (Sigma), 1 mmol/L Na Pyruvate, 15 mmol/L HEPES, 5% penicillin/streptomycin (PAA) and 1% B27 (Gibco), and containing 20 ng/mL EGF (Promega). After 5-7 days, stem cells formed floating neurospheres.
(§2) To evaluate the internalization of the FITC labelled NFL-TBS40-63 peptide by the fluorescence-activated cell sorting technique (FACS, Becton Dickinson), neurospheres were seeded in 35-mm dishes and cultured for 30 min at 37° C. in media containing FITC labelled NFL-TBS40-63 peptide at increasing concentrations. To quench the extracellular signal of the FITC labelled NFL-TBS40-63 peptide, 0.4% trypan blue (Sigma) was added before FACS analysis. To investigate the uptake mechanism, neurospheres were preincubated at 4° C. during 30 min, or with 10 mmol/L sodium azide in the presence of 6 mmol/L 2-deoxy-D-glucose to deplete cellular ATP, or with different inhibitors during 30 min at 37° C. Then 20 μmol/L FITC labelled peptide was added to the cells for 30 min at 37 C.°. Subsequently, after centrifugation (5 min at 700 rpm), cells were dissociated mechanically and washed twice with PBS, and then re-suspended in 50 μg/mL Propidium iodide (PI, Sigma). The fluorescent positive cells that incorporated the FITC labelled peptide were analyzed by flow cytometry (FACSCalibur, Becton Dickinson).

[6] = tested on: neural stem cells of adult rats; experiment: FACS internalization of FITC labelled peptide in neurospheres of adult rats; type: cell-based, rat; settings: 40 μmol/L, 30 minutes
Protocol: as §1
as §2, with “Subsequently, after centrifugation (5 min at 700 rpm), cells were dissociated mechanically and washed twice with PBS, and then re-suspended in 50 μg/mL Propidium iodide (PI, Sigma).” left out

[7] = tested on: adult neural stem cells in the SVZ; experiment: Intra-ventricular injection of the peptide and immunohistochemistry of the SVZ; type: in vivo, rat
Protocol: Adult females Wistar rats were anesthetized by intraperitoneal injection of a mixture of ketamine 10% (80 mg/kg) and xylazine 2% (10 mg/kg). Animals were then placed on a stereotaxic apparatus (David Kopf instruments, Tujunga, Calif.), and a sagital incision was made through the skin to expose the cranium in which a small hole was made using a dental drill, at the appropriate coordinates (−0.8 mm anterior and 1.6 mm lateral to the bregma). A volume of […] of the FITC-peptide 1 mmol/L was injected, using a 10-μL Hamilton syringe (Hamilton glass syringe 70 RN) with a 32-G needle (Hamilton, VWR), at a depth of 4.3 mm from the outer border of the cranium into the right lateral ventricle, and connected through a cannula to a 100-μL Hamilton 22-G syringe (Hamilton glass syringe 810 RN) containing the peptide. A slow-infusion was performed by convection-enhanced delivery (CED) with an osmotic pump (Harvard Apparatus) at a flow rate of 0.5 μL/min. After injection and withdrawal of the needle (0.5 mm/min), the head skin was sutured. Animals were sacrificed 1 hour, 6 hours, or 24 hours after the injection, and brains were removed and frozen, before sectioning them using a Leica cryostat. […]

[8] = tested on: neural stem cells of newborn rats; experiment: Uptake mechanism by FACS (4° C., ATP depletion, endocytosis inhibitors); type: cell-based, rat
Protocol: as §2

[9] = tested on: neural stem cells; experiment: Neurosphere forming analysis (primary neurospheres, adherence); type: cell-based, rat
Protocol: (§3) To investigate neurosphere forming properties, 5.10^3 SVZ cells were seeded per well in a 24 wells plate in media containing 20 ng/mL EGF. Cells were incubated in the absence or presence of increasing concentrations of biotinylated peptide, or with 1 μg/mL colchicine. After 5-7 days, the total number of primary neurospheres and the percent of adherent primary neurospheres were determined in each condition by microscopy analysis, and pictures were taken with an inverted microscope and the Metamorph software. Then for self-renewal assay, primary neurospheres were collected in each condition, dissociated as single cells, and seeded in media containing 20 ng/mL EGF. After 5 days, the total number of secondary neurospheres was counted in each condition by microscopy analysis.

[10] = tested on: neural stem cells; experiment: Self-renewal assay (secondary neurospheres); type: cell-based, rat; settings: primary neurospheres cultured with peptide, dissociated, 5 days in culture medium only
Protocol: as §3

[11] = tested on: PSA-NCAM expression on neural stem cells; experiment: PSA-NCAM expression by flow cytometry; type: cell-based, rat; settings: high peptide concentrations, 7 days
Protocol: To quantify the PSA-NCAM expression on neural stem cells, neurospheres were seeded in 35-mm dishes and cultured for 7 days at 37° C. in media containing biotinylated NFL-TBS.40-63 peptide at increasing concentrations, or containing 1% new-born calf serum (NBCS). After dissociation, cells were incubated with the anti-PSA-NCAM antibody conjugated to R-phycoerythrin (PE) for 10 minutes at 4° C. (Miltenyi), washed and then re-suspended in 50 μg/mL PI. The fluorescent positive cells that expressed PSA-NCAM were analyzed by flow cytometry.

[12] = tested on: glioblastoma cells; settings: glioblastoma cells (Bocquet et al., 2009; Bergès et al., 2012); cited from earlier work
[13] = tested on: neurones and astrocytes; settings: neurones and astrocytes (Bocquet et al., 2009; Bergès et al., 2012); cited from earlier work
[14] = summary of proliferation and adhesion results

COc1cc2c(c(OC)c1OC)-c1ccc(OC)c(=O)cc1[C@@H](NC(C)=O)CC2 [colchicine, reference compound]
neural stem cell proliferation (DNA concentration) ([1]; colchicine, anti-proliferative agent control): significant decrease
cellular cycle of NSC ([2]; 1 μg/mL colchicine, positive control): affected
microtubule network of NSC ([3]; colchicine): profoundly affected
number of viable NSC ([4]; colchicine, three days, Annexin V-FITC and PI): strongly reduced

FITC-peptide: NFL-TBS40-63 peptide coupled to carboxy-fluorescein isothiocyanate (FITC) (YSSYSAPVSSSLSVRRSYSSSSGS; also: coupled to FITC, site not given here; UniProt P07196 40-63, looked up, fragment)
percentage of newborn NSCs that internalized the peptide ([5]; 5 μmol/L FITC-peptide): 38.72±9.08%
percentage of newborn NSCs that internalized the peptide ([5]; 40 μmol/L FITC-peptide): 91.07±5.13%
peptide uptake after quenching of surface-bound fluorescence ([5]; 0.4% trypan blue added before FACS reading): dose-dependent uptake of the peptide similar to that without quenching
maximum threshold of peptide uptake in adult NSC (percentage of fluorescent cells) [6]: 92.74±2.51%
localisation of the peptide in brain sections ([7]; 1 mmol/L FITC peptide in right lateral ventricle of adult rats, 1 hour after injection): localised in the right lateral ventricle, in the ependymal cells and a part was observed in the SVZ
cytotoxicity in vivo ([7]; after injection in right lateral ventricle, confocal analyses): without causing detectable cytotoxicity
internalization of the peptide by confocal microscopy ([3]; NSCs in the neurospheres and progenitor cells in the periphery, 20 μmol/L FITC labelled peptide): confirmed the internalization

YSSYSAPVSSSLSVRRSYSSSSGS (TBS motif of the human light chain neurofilament protein, amino acids) [NFL-TBS40-63 peptide]
peptide uptake under ATP-depletion ([8]; ATP-depleted buffer 30 minutes before peptide, 20 μmol/L FITC labelled peptide): not affected
peptide uptake at 4° C. ([8]; cells at 4° C. 30 minutes before peptide, 20 μmol/L FITC labelled peptide): not affected
peptide uptake in the presence of inhibitors of endocytic and signalling pathways ([8]; chlorpromazine, PMA, DAM, wortmaninn, U0126, genistein, sunitinib, gefitinib pre-treatment 30 min, 20 μmol/L peptide): not affected
adherence of primary neurospheres ([9]; 40 μmol/L peptide): most of primary neurospheres were adherent
number of primary neurospheres compared to untreated control ([9]; increased peptide concentrations, 5 days, except for 100 μmol/L): did not change
adherence of primary neurospheres ([9]; peptide concentrations higher than 40 μmol/L): no floating neurospheres were observed
high concentrations that affect both proliferation and adhesion of neural stem cells [9, 14]: ≥ 40 µmol/L
low concentrations that disrupt cell proliferation without effect on cell attachment [9, 14]: up to 20 μmol/L
numbers of secondary neurospheres compared to control (self-renewal) [10]: significantly lower numbers of secondary neurospheres
PSA-NCAM expression on the neural stem cells [11]: weak decrease
neural stem cell proliferation (DNA concentration) ([1]; increased peptide concentrations, one week (72 h in method)): significant decrease
cellular cycle of NSC ([2]; increased peptide concentrations, 48 h): remained unchanged
cells in G1-phase ([2]; with or without peptide, 48 h): 60-65%
cells in G2/M-phases ([2]; with or without peptide, 48 h): ~7%
cells in S-phase ([2]; with or without peptide, 48 h): ~10%
microtubule network of NSC ([3]; 6 hours of incubation with the peptide (20 μmol/L FITC labelled)): not affected
NSC cell viability [4]: not modified
concentration at which the peptide disrupts microtubule formation and the cellular cycle [12]: higher than 10 μm
microtubule and cellular cycle disruption in normal cells [13]: not observed
